Reference: US20250221979A1, “NOVEL HETEROCYCLIC COMPOUND” (SHOUYAO HOLDINGS (BEIJING) CO., LTD., priority 2022, published 2025)

Biological target: human MAT2A enzyme (Homo sapiens (Human), UniProt P31153)
Assay: In vitro enzymatic inhibition activity assay on MAT2A (PiColorLock phosphate detection)
Format: biochemical
Settings: purified human MAT2A 10 nM, ATP 50 μM, L-methionine 100 μM, 6 h at 23° C.; read-out: MAT2A inhibitory activity IC50
Method in brief: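 Purified human MAT2A (10 nM) turned L-methionine (100 μM) and ATP (50 μM) into SAM in Tris-HCl pH 7.5 buffer with MgCl2, KCl and DTT for 6 h at 23 °C. Released phosphate was read colorimetrically at 630 nm. IC50 was fitted from an 8-point, 10-fold dilution series.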

Sequence of human MAT2A enzyme (P31153 whole entry): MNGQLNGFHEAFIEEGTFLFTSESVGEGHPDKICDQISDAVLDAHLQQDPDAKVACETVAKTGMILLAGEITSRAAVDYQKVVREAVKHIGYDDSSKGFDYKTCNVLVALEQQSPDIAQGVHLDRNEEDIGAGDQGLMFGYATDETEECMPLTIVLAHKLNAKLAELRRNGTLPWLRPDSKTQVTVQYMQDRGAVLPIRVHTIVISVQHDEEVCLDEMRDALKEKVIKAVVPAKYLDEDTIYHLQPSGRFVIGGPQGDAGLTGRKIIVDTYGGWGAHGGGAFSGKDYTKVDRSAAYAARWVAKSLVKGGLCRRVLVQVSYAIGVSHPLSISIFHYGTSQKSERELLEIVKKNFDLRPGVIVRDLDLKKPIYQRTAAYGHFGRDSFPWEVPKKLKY

Row | Structure (SMILES) | IC50 [nM]
1 | COC(=O)c1c(N)c2ccc(C(F)(F)F)cc2n(-c2cccc(CO)c2)c1=O [Example 21, methyl 4-amino-1-(3-(hydroxymethyl)phenyl)-2-oxo-7-(trifluoromethyl)-1,2-dihydroquinoline-3-carboxylate] | 6.58
2 | COC(=O)c1c(N)c2ccc(C3CC3)cc2n(-c2ccc(OC)cc2)c1=O [Example 73, methyl 4-amino-7-cyclopropyl-1-(4-methoxyphenyl)-2-oxo-1-phenyl-1,2-dihydroquinoline-3-carboxylate] | 1.67
3 | COC(=O)c1c(N)c2ccc(Br)cc2n(-c2ccc(Cl)cc2C)c1=O [Example 152, methyl 4-amino-7-bromo-1-(4-chloro-2-methylphenyl)-2-oxo-1,2-dihydroquinoline-3-carboxylate] | 1.64
4 | [2H]C([2H])([2H])OC(=O)c1c(N)c2ccc(OC(F)(F)F)cc2n(-c2ccc(N)cc2)c1=O [Example 391, methyl-d3 4-amino-1-(4-aminophenyl)-2-oxo-7-(trifluoromethoxy)-1,2-dihydroquinoline-3-carboxylate] | 1.31
5 | CCOC(=O)c1c(N)c2ccc(C(F)(F)F)cc2n(-c2ccc([C@@H](C)O)cc2)c1=O [Example 330, ethyl 4-amino-1-(4-(1-(R)-hydroxyethyl)phenyl)-2-oxo-7-(trifluoromethyl)-1,2-dihydroquinoline-3-carboxylate] | 0.92
6 | COC(=O)c1c(N)c2ccc(C(F)(F)F)cc2n(-c2ccc(C=O)cc2)c1=O [Example 164, methyl 4-amino-1-(4-formylphenyl)-2-oxo-7-(trifluoromethyl)-1,2-dihydroquinoline-3-carboxylate] | 7.58
7 | COC(=O)c1c(N)c2ccc(Br)cc2n(-c2cnc(Cl)cc2C)c1=O [Example 161, methyl 4-amino-7-bromo-1-(6-chloro-4-methylpyridin-3-yl)-2-oxo-1,2-dihydroquinoline-3-carboxylate] | 4.67
8 | COC(=O)c1c(N)c2ccc(Br)nc2n(-c2cnc(Cl)cc2C)c1=O [Example 249, methyl 4-amino-7-bromo-1-(6-chloro-4-methylpyridin-3-yl)-2-oxo-1,2-dihydro-1,8-naphthyridine-3-carboxylate] | 2.99
9 | COC(=O)c1c(N)c2ccc(C(F)(F)F)cc2n(-c2ccc(OC)cc2F)c1=O [Example 97, methyl 4-amino-1-(2-fluoro-4-methoxyphenyl)-2-oxo-7-(trifluoromethyl)-1,2-dihydroquinoline-3-carboxylate] | 9.95
10 | COC(=O)c1c(N)c2ccc(I)cc2n(-c2cccc3c2CCO3)c1=O [Example 59, methyl 4-amino-1-(2,3-dihydro-1-benzofuran-4-yl)-7-iodo-2-oxo-1,2-dihydro quinoline-3-carboxylate] | 5.12
11 | C=Cc1ccc2c(N)c(C(=O)OC)c(=O)n(-c3cccc4cnccc34)c2c1 [Example 185, methyl 4-amino-1-(isoquinolin-5-yl)-2-oxo-7-vinyl-1,2-dihydroquinoline-3-carboxylate] | 8.94

Results, then the molecule that gave them:

Row | IC50 [nM] | Structure (SMILES)
12 | 1 | COC(=O)c1c(N)c2ccc(C(F)F)nc2n(-c2ccc(C(C)O)cc2)c1=O (stereo not drawn) [Example 366, methyl 4-amino-7-(difluoromethyl)-1-(4-(1-hydroxyethyl)phenyl)-2-oxo-1,2-dihydro-1,8-naphthyridine-3-carboxylate]
13 | 2.09 | CCOC(=O)c1c(N)c2ccc(Br)cc2n(-c2ccc3ncoc3c2)c1=O [Example 257, ethyl 4-amino-1-(benzo[d]oxazol-6-yl)-7-bromo-2-oxo-1,2-dihydroquinoline-3-carboxylate]
14 | 2.49 | [2H]C([2H])([2H])OC(=O)c1c(N)c2ccc(C(F)(F)F)cc2n(-c2ccc(C(C)O)cc2)c1=O (stereo not drawn) [Example 331, methyl-d3 4-amino-1-(4-(1-hydroxyethyl)phenyl)-2-oxo-7-(trifluoromethyl)-1,2-dihydroquinolin-3-carboxylate]
15 | 3.12 | COC(=O)c1c(N)c2ccc(C(F)(F)F)cc2n(-c2ccc(C)cc2C)c1=O [Example 149, methyl 4-amino-1-(2,4-dimethylphenyl)-2-oxo-7-(trifluoromethyl)-1,2-dihydroquinoline-3-carboxylate]
16 | 2 | COC(=O)c1c(N)c2ccc(Br)nc2n(-c2cnc(Cl)cc2C)c1=O [Example 296, methyl 4-amino-7-bromo-1-(6-chloro-4-methylpyridin-3-yl)-2-oxo-1,2-dihydro-1,8-naphthyridine-3-carboxylate]
17 | 0.6 | [2H]C([2H])([2H])OC(=O)c1c(N)c2ccc(Br)cc2n(-c2ccc(C(C)O)cc2)c1=O (stereo not drawn) [Example 311, methyl-d3 4-amino-7-bromo-1-(4-(1-hydroxyethyl)phenyl)-2-oxo-1,2-dihydroquinoline-3-carboxylate]
18 | 0.92 | COC(=O)c1c(N)c2ccc(C(F)(F)F)nc2n(-c2ccc(C(C)O)cc2)c1=O (stereo not drawn) [Example 303, methyl 4-amino-1-(4-(1-hydroxyethyl)phenyl)-2-oxo-7-(trifluoromethyl)-1,2-dihydro-1,8-naphthyridine-3-carboxylate]
19 | 1.36 | COC(=O)c1c(N)c2ccc(C(C)(F)F)cc2n(-c2ccc([C@@H](C)O)cc2)c1=O [Example 358, methyl 4-amino-7-(1,1-difluoroethyl)-1-(4-((1R)-1-hydroxyethyl)phenyl)-2-oxo-1,2-dihydroquinoline-3-carboxylate]
20 | 5.99 | COC(=O)c1c(N)c2ccc(Br)cc2n(-c2ccc([N+](=O)[O-])cc2)c1=O [Example 130, methyl 4-amino-2-oxo-7-bromo-1-(4-nitrophenyl)-1,2-dihydroquinoline-3-carboxylate]
21 | 2.86 | COC(=O)c1c(N)c2ccc(C(F)(F)F)cc2n(-c2ccc(Cl)cc2C)c1=O [Example 151, methyl 4-amino-1-(4-chloro-2-methylphenyl)-2-oxo-7-(trifluoromethyl)-1,2-dihydroquinoline-3-carboxylate]
22 | 1.45 | COC(=O)c1c(N)c2ccc(Br)nc2n(-c2ccc(Cl)cc2C)c1=O [Example 287, methyl 4-amino-7-bromo-1-(4-chloro-2-methylphenyl)-2-oxo-1,2-dihydro-1,8-naphthyridine-3-carboxylate]
23 | 2.34 | C=Cc1ccc2c(N)c(C(=O)OC)c(=O)n(-c3ccccc3)c2c1 [Example 24, methyl 4-amino-7-vinyl-2-oxo-1-phenyl-1,2-dihydroquinoline-3—carboxylate]
24 | 2.2 | COC(=O)c1c(N)c2ccc(C(F)(F)F)nc2n(-c2ccc(N)cc2C)c1=O [Example 282, methyl 4-amino-1-(4-amino-2-methylphenyl)-2-oxo-7-(trifluoromethyl)-1,2-dihydro-1,8-naphthyridine-3-carboxylate]
25 | 1.04 | COC(=O)c1c(N)c2ccc(Br)nc2n(-c2ccc(Cl)c3cnccc23)c1=O [Example 289, methyl 4-amino-1-(8-chloroisoquinolin-5-yl)-7-bromo-2-oxo-1,2-dihydro-1,8-naphthyridine-3-carboxylate]
26 | 3.39 | COC(=O)c1c(N)c2ccc(Br)cc2n(-c2ccc3ncoc3c2)c1=O [Example 268, methyl 4-amino-1-(benzo[d]oxazol-6-yl)-7-bromo-2-oxo-1,2-dihydroquinoline-3-carboxylate]
27 | 3.79 | COC(=O)c1c(N)c2ccc(C(F)(F)F)cc2n(Cc2ccccc2)c1=O [Example 29, methyl 4-amino-1-benzyl-2-oxo-7-(trifluoromethyl)-1,2-dihydroquinoline-3-carboxylate]
